In ChEMBL document CHEMBL1127874, “Development of tetrazole bioisosteres in angiotensin II antagonists” (Bioorg Med Chem Lett, 1994) one finds IC50 data, which are given here for 8 molecules.

The target in experiment [1] is T1, Angiotensin II receptor (AT-1) type-1 (Rattus norvegicus, UniProt P29089+P25095).
T1 sequence (P29089 whole entry): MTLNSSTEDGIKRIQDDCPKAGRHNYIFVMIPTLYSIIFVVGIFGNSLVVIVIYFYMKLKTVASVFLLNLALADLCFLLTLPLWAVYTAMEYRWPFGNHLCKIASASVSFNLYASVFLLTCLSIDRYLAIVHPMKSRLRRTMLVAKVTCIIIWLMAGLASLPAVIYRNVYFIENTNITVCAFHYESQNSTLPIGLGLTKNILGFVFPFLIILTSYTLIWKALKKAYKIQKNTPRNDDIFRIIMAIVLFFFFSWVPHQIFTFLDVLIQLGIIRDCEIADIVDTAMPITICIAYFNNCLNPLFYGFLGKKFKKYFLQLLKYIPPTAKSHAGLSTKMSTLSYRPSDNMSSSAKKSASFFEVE
T1 sequence (P25095 whole entry): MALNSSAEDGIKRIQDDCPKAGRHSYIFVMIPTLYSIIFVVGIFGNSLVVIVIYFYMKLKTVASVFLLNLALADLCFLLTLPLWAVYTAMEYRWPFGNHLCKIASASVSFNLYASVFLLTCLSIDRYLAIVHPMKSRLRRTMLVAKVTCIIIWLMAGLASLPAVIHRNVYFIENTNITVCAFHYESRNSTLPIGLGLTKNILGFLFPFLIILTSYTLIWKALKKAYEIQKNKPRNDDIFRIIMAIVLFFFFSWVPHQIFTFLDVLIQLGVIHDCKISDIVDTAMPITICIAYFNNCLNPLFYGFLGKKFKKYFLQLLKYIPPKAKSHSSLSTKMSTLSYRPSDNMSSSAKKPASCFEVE
The experiment in a line: Binding affinity towards Angiotensin II receptor, type 1 in rat liver membrane using [125I]-angiotensin II (0.1 nM). The format is cell membranes.

For another experiment, the species on record is Oryctolagus cuniculus. The experiment in a line: Inhibitory activity against contractile response to angiotensin II (10 nM) of rabbit aortic rings. To be noted: Aorta. It counts as functional.

For orientation: IC50 means the concentration at which inhibition is half-maximal. A lower IC50 goes with inhibition by little substance. On to `CCCCC1=NC2(CCCC2)C(=O)N1Cc1ccc(-c2ccccc2-c2nc(=O)[nH]o2)cc1`, for which the IC50 in experiment [1] stood at 230 nM. Take `CCCCC1=NC2(CCCC2)C(=O)N1Cc1ccc(-c2ccccc2-c2nnc(O)o2)cc1`: the values for the IC50 (in experiment [1]; in the experiment filed under Oryctolagus cuniculus) were 60 nM and 67 nM, respectively. Turning to `CCCCC1=NC2(CCCC2)C(=O)N1Cc1ccc(-c2ccccc2-n2oc(=O)[nH]c2=O)cc1`, the IC50 in experiment [1] came to 1.4 nM; in the experiment filed under Oryctolagus cuniculus, 2.8 nM. For the molecule `CCCCC1=NC(C)(C2CCCCC2)C(=O)N1Cc1ccc(-c2ccccc2-c2noc(O)n2)cc1` (stereo not drawn), the IC50 in experiment [1] came out at 0.7 nM; in the experiment filed under Oryctolagus cuniculus, 0.64 nM. The molecule `CCCCC1=NC2(CCCC2)C(=O)N1Cc1ccc(-c2ccccc2-c2nnn[nH]2)cc1` [IRBESARTAN] returned an IC50 in experiment [1] of 1.3 nM. `CCCCC1=NC(C)(C2CCCCC2)C(=O)N1Cc1ccc(-c2ccccc2-c2n[nH]c(O)n2)cc1` (stereo not drawn): in experiment [1], the half-inhibitory concentration (IC50) was 100 nM. Regarding `CCCCC1=NC2(CCCC2)C(=O)N1Cc1ccc(-c2ccccc2-c2noc(O)n2)cc1`, the results for the IC50 (in experiment [1]; in the experiment filed under Oryctolagus cuniculus) were 1.7 nM and 2.6 nM, respectively. The matching figures for `CCCCC1=NC2(CCCC2)C(=O)N1Cc1ccc(-c2ccccc2C2=NOC(=O)C2)cc1`: 25 nM and 140 nM.
